The values below come from US20250134853A1, “COMPOUNDS AND METHODS FOR USING GALLOYLATED POLYPHENOLS TO TREAT DISEASES MEDIATED BY THIOL ISOMERASES” (Beth Israel Deaconess Medical Center, Inc., priority 2023, published 2025).

The target in data set [1] is SARS-CoV-2 M^pro (Severe acute respiratory syndrome coronavirus 2, UniProt P0DTD1).
Data set [2] addresses T1, PDI (Homo sapiens, UniProt P07237).
T1 construct: FLAG; made in house; host or cells: Escherichia coli Origami B (DE3)
In words: Insulin reductase assay. Particulars: 20 μM. It counts as biochemical.
Experimental: Insulin reductase assay. Insulin was prepared by mixing 12.5 mg/mL insulin in 50 mM Tris-HCl, pH 8. 1 M HCl was carefully added to drop the pH to 2.0 for solution clarification. Once the solution clarifies, 1 M NaOH was added to rapidly adjust the pH back to 8.0. The solution was then adjusted to 1.5 mM (10 mg/mL) with 50 mM Tris-HCl, aliquoted and stored in −20° C. until use. 2× concentrations of thiol isomerases were prepared (final concentrations as indicated in each assay) and mixed with 1.2 mM DTT (final 0.3 mM) and 0.4 mM insulin (final 0.1 mM) using a thiol isomerase activity assay buffer. Insulin precipitation from enzyme-mediated reduction was assayed in 96-well clear bottom plates at 650 nm absorption.

Data set [3] concerns thrombus formation in carotid artery after FeCl3. As to the kind of experiment: Ferric chloride thrombosis model. Particulars: punicalagin by oral gavage. It counts as in vivo, C57Bl/6J mice. As to the method: Wildtype C57Bl/6J mice were exposed to 100 μg/g punicalagin via oral gavage (n=5) or vehicle (n=7). The carotid artery was surgically isolated, exposed to 10% w/v FeCl3 for 3 min, and visualized by fluorescence microscopy. Time to occlusion was monitored.
Ferric chloride thrombosis model. Thrombus formation induced by ferric chloride was assayed as previously described in Li W, et al. Circ. Res. 115:997-1006, 2014. The mice were treated by oral gavage with 100 μg/g punicalagin or vehicle control for 90 min prior to injury. Before the 90 min time point, the mice were anesthetized with a cocktail of 125 mg/kg ketamine and 12 mg/kg xylazine. The left jugular vein was cannulated for infusion of a DyLight 649 conjugated antibody against GPIbβ (Emfret Analytics; 0.1 μg/g) and 50 mg/kg pentobarbital for maintenance anesthetics. […] Thrombi formation was observed using a 10×0.3 NA water immersion objective mounted to an AX-70 fluorescence microscope (Olympus Japan) equipped with a CCD camera (ORCA Flash 4.0, Hamamatsu Photonics, Japan). Data were analyzed by Slidebook 6.0 (Intelligent Imaging Innovations).
Punicalagin inhibits thrombus formation. […] The ability of orally delivered punicalagin to inhibit thrombus formation following vascular injury was assessed. […] Vessel patency was visualized by fluorescence microscopy using anti-GPIbβ antibody to monitor for vascular occlusion. […]

Data set [4] deals with bleeding following tail clip. As to the kind of experiment: Tail clip assay of hemostasis. Particulars: punicalagin ingestion.
Data set [5] relates to recombinant PDI, ERp57, and ERp5. As to the kind of experiment: Di-eosin-GSSG assay, thiol isomerases at 20 μM compound. In kind it is biochemical. The settings on record: 15 minute incubation.
In data set [6] the target is T1, PDI. As to the kind of experiment: Di-eosin-GSSG disulfide reductase assay, PDI. In kind it is biochemical.
Experimental: (§1) Di-eosin-GSSG disulfide reductase assay. The probe di-eosin glutathione disulfide, di-eosin-GSSG, was prepared by incubating 100 μM of GSSG with 1 mM of eosin isothiocyanate in 100 mM potassium phosphate containing 2 mM EDTA (pH 7.4), at 25° C. overnight in the dark. The mixture was passed down a PD-10 column and different fractions were collected. A fold change of fluorescence (Ex: 520 nm, Em: 550 nm) was calculated using samples subjected to either vehicle or 20 mM of DTT. Any fraction with a fold change >5 was kept. Using a stock of 10 mM eosin isothiocyanate, a standard curve was generated and concentration of samples were determined accordingly. Di-eosin-GSSG cleavage of purified thiol isomerases and PDI domains was monitored in a 96-well fluorescence plate format. PDI, CGXC-PDI variants, ERp5, ERp57, ERp46 and PDI domains were assayed at 50 nM in the presence or absence of the indicated small molecules. The assay included a thiol isomerase assay buffer (39 mM KH2PO4, 61 mM K2HPO4, 2 mM EDTA, 5 M DTT, pH 7.4) and 150 nM of the di-eosin-GSSG probe. The increase in fluorescence was determined for 60 min by excitation at 520 nm and emission at 550 nm in a Synergy Biotek 4. The reduction of 150 nM di-eosin-GSSG by 5 μM DTT in the presence or absence of mentioned small molecule or proteins served as a negative control.
Data set [7] relates to PDI domain fragments (a, a′, ab, abb′, b′xa′). In words: Di-eosin-GSSG assay on isolated PDI domain fragments. Particulars: for inhibition of isolated a′ domain cleavage of di-eosin-GSSG: 20 μM. In kind it is biochemical.
Experimental: as §1
In data set [8] the test system is SARS-CoV-2. The settings on record: cited from earlier work.
Data set [9] deals with T1, PDI. As to the kind of experiment: SDS-PAGE molecular weight shift (alkylation of PDI free thiols). In kind it is biochemical. From the text: FIG. 5 is an image of gel showing detection of PDI free thiol by the labeling of acetamido maleimidylstilbene disulfonic acid (AMS), which shifts the protein to a higher apparent molecular weight.
4-acetomido-4′-maleimidylstilbene-2,2′ disulfonic acid (AMS), which shifts the mass of the protein by 500 Da for every cysteine alkylated, was used as a positive control. […] N-ethylmaleimide (NEM) was used for a control experiment because covalent alkylation of the free thiols will expectedly prevent PDI activity (FIG. 6A).

For data set [10], the target named is T2, ERp5 (Homo sapiens, UniProt Q15084).
T2 construct: recombinant His-tagged full-length ERp5, ERp72; His-tag; made in house; host or cells: Escherichia coli Origami B (DE3)
T2 sequence (Q15084 20-440): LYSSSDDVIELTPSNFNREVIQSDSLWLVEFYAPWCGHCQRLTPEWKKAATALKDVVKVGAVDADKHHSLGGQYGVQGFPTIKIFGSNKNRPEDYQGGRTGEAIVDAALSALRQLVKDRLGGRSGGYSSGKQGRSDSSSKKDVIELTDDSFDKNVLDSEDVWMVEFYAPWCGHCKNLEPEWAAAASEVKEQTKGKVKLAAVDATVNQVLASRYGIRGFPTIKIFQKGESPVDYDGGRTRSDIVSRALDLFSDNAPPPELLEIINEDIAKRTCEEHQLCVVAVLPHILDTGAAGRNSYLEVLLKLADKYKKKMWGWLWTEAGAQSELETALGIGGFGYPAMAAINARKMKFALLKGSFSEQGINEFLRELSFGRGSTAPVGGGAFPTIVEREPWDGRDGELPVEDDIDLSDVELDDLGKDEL
As to the kind of experiment: Di-eosin-GSSG disulfide reductase assay, ERp5. It counts as biochemical. The settings on record: 20 μM. From the text:
Recombinant protein purification. Recombinant ‘double-tagged’ (streptavidin-binding protein-tagged and FLAG-tagged) full-length PDI, ERp57, recombinant His-tagged full-length ERp5, ERp72, PDI domain fragments, and PDI mutant were cloned into a pET-15b vector at the NdeI and BamHI sites and transformed into Escherichia coli Origami B (DE3) cells (EMD Chemicals). The recombinant proteins were expressed and isolated by affinity chromatography with complete His-Tag purification resin (Roche Applied Science) or Pierce High-Capacity Streptavidin Agarose beads and purified on a Superdex 200 (GE Healthcare).
Di-eosin-GSSG disulfide reductase assay. […] Any fraction with a fold change >5 was kept.

The mark [11] stands for this setting: Table 1, IC50 curves on PDI activity (FIGS. 13B-E, 17A-E), read-out: Relative PDI inhibition.

“Also recorded” adds a separate entry of the source. Where two headings read alike, the source gives them in different places.

T1 sequence (P07237 18-508): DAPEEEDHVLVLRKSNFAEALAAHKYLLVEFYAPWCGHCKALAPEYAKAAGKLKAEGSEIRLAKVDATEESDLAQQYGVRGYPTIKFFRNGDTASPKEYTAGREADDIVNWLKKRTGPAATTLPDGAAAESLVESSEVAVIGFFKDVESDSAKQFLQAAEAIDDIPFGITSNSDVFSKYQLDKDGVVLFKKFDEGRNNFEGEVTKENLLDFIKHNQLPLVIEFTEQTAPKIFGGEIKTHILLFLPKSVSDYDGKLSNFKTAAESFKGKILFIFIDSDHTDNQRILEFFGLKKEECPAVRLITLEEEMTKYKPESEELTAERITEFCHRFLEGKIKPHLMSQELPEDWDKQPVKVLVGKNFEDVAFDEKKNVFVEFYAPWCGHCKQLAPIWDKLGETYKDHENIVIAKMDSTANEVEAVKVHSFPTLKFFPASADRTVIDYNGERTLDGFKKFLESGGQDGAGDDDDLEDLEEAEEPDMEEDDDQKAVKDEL

Consider `O=C1O[C@H]2[C@@H]3OC(=O)c4cc(O)c(O)c(O)c4-c4c(O)c(O)c5oc(=O)c6c(c(O)c(O)c7oc(=O)c4c5c76)-c4c(cc(O)c(O)c4O)C(=O)OC[C@H]3OC(O)[C@@H]2OC(=O)c2cc(O)c(O)c(O)c2-c2c1cc(O)c(O)c2O` (mixture of isomers) [Punicalagin], for which the IC50 is 5.7 µM in data set [1] (read-out: SARS-CoV-2 M^pro inhibition; literature values (Table 2); cited from earlier work) and 19 µM in [6] (setting [11]). In addition, the “inhibition of the ability of PDI to reduce insulin” value in data set [2] is on record as “inhibited the ability of PDI to reduce insulin”. Further, in data set [3] (10% FeCl3 for 3 min), the “vessels that never occluded” value is listed as approximately 50%. The “time for occlusion of vessels that clotted” value in data set [3] (compared to controls) is listed as “consistently prolonged”. For the same molecule, in data set [4], the “cessation of bleeding, Kaplan Meier curves” value is given as “prolonged bleeding”. The total bleeding time in data set [4] (1 mm diameter tail transection) was 110 s. Further, the figures for the “inhibition of thiol isomerases (PDI, ERp57, ERp5) in words” value (“inhibition of thiol isomerases” for short) in data set [5] and in [5] (listed as punicalagin) were “strong inhibition of thiol isomerases” and “strong thiol isomerase inhibition”, respectively. Also, the “inhibition of isolated a′ domain cleavage of di-eosin-GSSG” value (“inhibition … of di-eosin-GSSG” for short) in data set [7] is “inhibited the ability of isolated a′ domain to cleave di-eosin-GSSG”. Besides, in data set [8], the “Inhibition of viral replication (cell system in which shown)” value (“Inhibition of viral replication” below) is 293T-hACE2 and NIC-H460. Also, the “inhibition of SARS-CoV-2 / infection (in words)” value in data set [8] is “inhibits both SARS-CoV-2 M^pro and omicron variants of SARS-CoV-2 infection”.
Take `CC(=O)Nc1ccc(C=Cc2ccc(N3C(=O)C=CC3=O)cc2S(=O)(=O)O)c(S(=O)(=O)O)c1` [AMS, 4-acetomido-4′-maleimidylstilbene-2,2′ disulfonic acid, reference compound]: the “shift in molecular weight of PDI in SDS polyacrylamide gel” value in [9] was “induced a slight increase in molecular mass”.
Regarding `O=C(O[C@@H]1Cc2c(O)cc(O)cc2O[C@H]1c1ccc(O)c(O)c1)c1cc(O)c(O)c(O)c1` [Catechin 3-gallate], the “activity against ERp5 (in words)” value in [10] is “had activity against ERp5”. Besides, the “inhibition of thiol isomerases” value in data set [5] is given as “some inhibition, particularly of ERp5”. In [6] (setting [11]), the IC50 is more than 20 µM.
For the molecule `Oc1cc(O)c2c(c1)O[C@H](c1cc(O)c(O)c(O)c1)[C@H](O)C2` [EGC, epigallocatechin], the “inhibition of thiol isomerases” value in [5] was “relatively little activity”. Also, the “inhibition of PDI (in words)” value in data set [6] was “did not inhibit PDI; also recorded: inactive compounds against PDI”. The IC50 in data set [6] (setting [11]) is more than 500 µM.
Take `O=C(O[C@@H]1Cc2c(O)cc(O)cc2O[C@@H]1c1cc(O)c(O)c(O)c1)c1cc(O)c(O)c(O)c1` [EGCG, epigallocatechin gallate]: in data set [5], the “inhibition of thiol isomerases” value is recorded as “relatively little activity”. Also, the “inhibition of PDI (in words)” value in data set [6] is “did not inhibit PDI; also recorded: inactive compounds against PDI”. The IC50 in data set [6] (setting [11]) turned out to be 243 µM.
With `O=C(O)c1cc(O)c(O)c(O)c1` [Gallic Acid, 3,4,5-trihydroxybenzoic acid], in data set [5], the “inhibition of thiol isomerases” value is “Neither pinocembrin, gallic acid nor glucose showed substantial activity against thiol isomerases”. For the same molecule, in data set [6], the IC50 was more than 500 µM and the “inhibition of PDI (in words)” value was “inactive compounds against PDI”. The “inhibition of PDI (in words)” value in [6] (listed as gallate) is given as “failed to inhibit PDI”.
As to `O=C1C[C@@H](c2ccccc2)Oc2cc(O)cc(O)c21` [Pinocembrin], in data set [5], the “inhibition of thiol isomerases” value is “no activity”. In addition, in [6], the “inhibition of PDI (in words)” value was “failed to inhibit PDI”. Also, the IC50 in data set [6] (setting [11]) was more than 500 µM.
In the case of `O=C(O[C@@H]1Cc2c(O)cc(O)cc2O[C@@H]1c1cc(=O)c(O)c2c(O)c(O)cc([C@H]3Oc4cc(O)cc(O)c4C[C@H]3O)c2c1)c1cc(O)c(O)c(O)c1` [Theaflavin 3-gallate], the IC50 in [1] (literature values (Table 2); read-out: SARS-CoV-2 M^pro inhibition; cited from earlier work) was 18.5 µM; in [6] (setting [11]) it was 3.4 µM. Besides, the “inhibition of the ability of PDI to reduce insulin” value in data set [2] was “inhibited the ability of PDI to reduce insulin”. Also, the “inhibition of thiol isomerases” value in [5] is given as “strong inhibition of all three thiol isomerases”. Besides, the “inhibition … of di-eosin-GSSG” value in data set [7] is listed as “inhibited the ability of isolated a′ domain to cleave di-eosin-GSSG”. For the same molecule, in data set [8] (Vero cell assay), the “reduction of viral counts” value is reported as 75%. In addition, in data set [8], the “Inhibition of viral replication” value is given as “Vero Cells”.
`O=c1c(O)cc([C@H]2Oc3cc(O)cc(O)c3C[C@H]2O)cc2c([C@H]3Oc4cc(O)cc(O)c4C[C@H]3O)cc(O)c(O)c12` [Theaflavin]: in data set [5], the “inhibition of thiol isomerases” value is reported as “poor inhibition”. Also, the “inhibition of PDI (in words)” value in [6] is “failed to inhibit PDI; also recorded: inactive compounds against PDI”. Besides, the IC50 in [6] (setting [11]) was more than 500 µM.
On to `O=c1cc(-c2ccc(O)cc2)oc2cc(O)cc(O)c12` [apigenin, reference compound], for which, in data set [8], the “inhibition of SARS-CoV-2 / infection (in words)” value is “inhibitors of SARS-CoV-2”.
As for Catechin, in [10], the “activity against ERp5 (in words)” value was “had activity against ERp5”.
Consider “theaflavin 3-3′-digallate [Theaflavin 3,3′-gallate]”, for which, in data set [5], the “inhibition of thiol isomerases” value is listed as “strong inhibition of all three thiol isomerases”. The “inhibition … of di-eosin-GSSG” value in [7] is “inhibited the ability of isolated a′ domain to cleave di-eosin-GSSG”. In addition, the “inhibition of isolated PDI fragments” value in data set [7] (a, ab, b′xa′, abb′ fragments, PGHG at 10 μM) is “inhibited isolated a and a′ fragments as well as ab, b′xa′ and abb′x fragments”. Further, in [8], the “Inhibition of viral replication” value is on record as “VeroE6/TMPRSS2”.
